Experimental data published in ChEMBL document CHEMBL1208667, “Permanent positive charge strongly influences DNA/RNA binding and antiproliferative activity of urea-phenanthridinium conjugates” (Eur J Med Chem, 2010).
Each block holds one compound with its values, some of them ahead of it. Activity calls are given as the source filed them. No cut-off for these calls is given here.

Columns and labels:
[1] = system: Caco-2; assay: Cytotoxicity against human Caco-2 cells at 100 uM after 72 hrs by MTT assay; type: functional, cell-based
[2] = system: Nucleic Acid; assay: Binding affinity to poly A-poly U RNA in sodium cacodylate buffer at pH 7 by fluorescence titration assay relative to control; type: nucleic-acid assay
[3] = system: Nucleic Acid; assay: Binding affinity to […] assessed as melting temperature at compound to DNA molar ratio of 0.2 at pH 5 by thermal denaturation assay; type: nucleic-acid assay
[4] = system: Nucleic Acid; assay: Binding affinity to […] assessed as change in melting temperature at compound to DNA molar ratio of 0.2 at pH 7 by thermal denaturation assay; type: nucleic-acid assay
[5] = system: Nucleic Acid; assay: Binding affinity to poly A-poly U RNA assessed as melting temperature at compound to DNA molar ratio of 0.3 at pH 7 by thermal denaturation assay; type: nucleic-acid assay
[6] = system: Caco-2; assay: Cytotoxicity against human Caco-2 cells at 0.1 to 100 uM after 72 hrs by MTT assay; type: functional, cell-based
[7] = system: Nucleic Acid; assay: Binding affinity to poly dA-poly dT RNA in sodium cacodylate buffer at pH 7 by UV-v titration assay; type: nucleic-acid assay
[8] = system: Nucleic Acid; assay: Binding affinity to […] assessed as melting temperature at compound to DNA molar ratio of 0.2 at pH 7 by thermal denaturation assay; type: nucleic-acid assay
[9] = system: Calf thymus DNA; assay: Binding affinity to calf thymus DNA assessed as melting temperature at compound to DNA molar ratio of 0.3 at pH 7 by thermal denaturation assay; type: nucleic-acid assay; details: Bos taurus
[10] = system: Nucleic Acid; assay: Binding affinity to AMP in citric acid buffer at pH 5 by fluorescence titration assay relative to control; type: nucleic-acid assay
[11] = system: Nucleic Acid; assay: Binding affinity to […] assessed as change in melting temperature at compound to DNA molar ratio of 0.3 at pH 7 by thermal denaturation assay; type: nucleic-acid assay
[12] = system: MIA PaCa-2; assay: Cytotoxicity against human MIAPaCa2 cells at 0.1 to 100 uM after 72 hrs by MTT assay; type: functional, cell-based
[13] = system: Calf thymus DNA; assay: Binding affinity to calf thymus DNA assessed as change in melting temperature at compound to DNA molar ratio of 0.3 at pH 5 by thermal denaturation assay; type: nucleic-acid assay; details: Bos taurus
[14] = system: Nucleic Acid; assay: Binding affinity to GMP in sodium cacodylate buffer at pH 7 by fluorescence titration assay relative to control; type: nucleic-acid assay
[15] = system: Nucleic Acid; assay: Binding affinity to poly G-poly C RNA in citric acid buffer at pH 5 by fluorescence titration assay relative to control; type: nucleic-acid assay
[16] = system: Nucleic Acid; assay: Binding affinity to poly A-poly U RNA assessed as change in melting temperature at compound to DNA molar ratio of 0.2 at pH 7 by thermal denaturation assay; type: nucleic-acid assay
[17] = system: Calf thymus DNA; assay: Binding affinity to calf thymus DNA in sodium cacodylate buffer at pH 7 by fluorescence titration assay relative to control; type: nucleic-acid assay; details: Bos taurus
[18] = Solubility of the compound in water; type: physicochemical; details: buffer
[19] = system: Nucleic Acid; assay: Binding affinity to […] assessed as change in melting temperature at compound to DNA molar ratio of 0.3 at pH 5 by thermal denaturation assay; type: nucleic-acid assay
[20] = system: Nucleic Acid; assay: Binding affinity to […] assessed as melting temperature at compound to DNA molar ratio of 0.3 at pH 5 by thermal denaturation assay; type: nucleic-acid assay
[21] = system: Nucleic Acid; assay: Binding affinity to poly A-poly U RNA assessed as change in melting temperature at compound to DNA molar ratio of 0.3 at pH 7 by thermal denaturation assay; type: nucleic-acid assay
[22] = system: Nucleic Acid; assay: Binding affinity to poly A-poly U RNA at compound to DNA molar ratio of 0.1 to 0.5 at pH 5 by circular dichroism; type: nucleic-acid assay
[23] = system: Calf thymus DNA; assay: Binding affinity to calf thymus DNA in sodium cacodylate buffer at pH 7 by fluorescence titration assay; type: nucleic-acid assay; details: Bos taurus
[24] = system: Nucleic Acid; assay: Binding affinity to poly A-poly U RNA assessed as change in melting temperature at compound to DNA molar ratio of 0.2 at pH 5 by thermal denaturation assay; type: nucleic-acid assay
[25] = system: Nucleic Acid; assay: Binding affinity to poly A-poly U RNA in citric acid buffer at pH 5 by fluorescence titration assay relative to control; type: nucleic-acid assay
[26] = system: Nucleic Acid; assay: Binding affinity to poly A-poly U RNA assessed as biphasic transitions of melting temperature at compound to DNA molar ratio of 0.2 at pH 5 by thermal denaturation assay; type: nucleic-acid assay
[27] = system: Nucleic Acid; assay: Binding affinity to AMP in sodium cacodylate buffer at pH 7 by fluorescence titration assay relative to control; type: nucleic-acid assay
[28] = system: Nucleic Acid; assay: Binding affinity to CMP in citric acid buffer at pH 5 by fluorescence titration assay relative to control; type: nucleic-acid assay
[29] = system: HEp-2; assay: Cytotoxicity against human Hep2 cells at 0.1 to 100 uM after 72 hrs by MTT assay; type: functional, cell-based
[30] = system: Calf thymus DNA; assay: Binding affinity to calf thymus DNA at compound to DNA molar ratio of 0.1 to 0.5 at pH 5 by circular dichroism; type: nucleic-acid assay; details: Bos taurus
[31] = system: Nucleic Acid; assay: Binding affinity to poly dA-poly dT RNA in citric acid buffer at pH 5 by fluorescence titration assay; type: nucleic-acid assay
[32] = system: Calf thymus DNA; assay: Binding affinity to calf thymus DNA in citric acid buffer at pH 5 by fluorescence titration assay relative to control; type: nucleic-acid assay; details: Bos taurus
[33] = system: Nucleic Acid; assay: Binding affinity to CMP in sodium cacodylate buffer at pH 7 by fluorescence titration assay relative to control; type: nucleic-acid assay
[34] = system: Nucleic Acid; assay: Binding affinity to poly dA-poly dT RNA in citric acid buffer at pH 5 by fluorescence titration assay relative to control; type: nucleic-acid assay
[35] = system: Calf thymus DNA; assay: Binding affinity to calf thymus DNA assessed as melting temperature at compound to DNA molar ratio of 0.3 at pH 5 by thermal denaturation assay; type: nucleic-acid assay; details: Bos taurus
[36] = system: Nucleic Acid; assay: Binding affinity to UMP in citric acid buffer at pH 5 by fluorescence titration assay relative to control; type: nucleic-acid assay
[37] = system: Calf thymus DNA; assay: Binding affinity to calf thymus DNA in citric acid buffer at pH 5 by fluorescence titration assay; type: nucleic-acid assay; details: Bos taurus
[38] = system: Nucleic Acid; assay: Binding affinity to poly G-poly C RNA in sodium cacodylate buffer at pH 7 by fluorescence titration assay relative to control; type: nucleic-acid assay
[39] = system: Nucleic Acid; assay: Binding affinity to UMP in sodium cacodylate buffer at pH 7 by fluorescence titration assay relative to control; type: nucleic-acid assay
[40] = system: Nucleic Acid; assay: Binding affinity to poly A-poly U RNA at compound to DNA molar ratio of 0.1 to 0.5 at pH 7 by circular dichroism; type: nucleic-acid assay
[41] = system: Calf thymus DNA; assay: Binding affinity to calf thymus DNA assessed as change in melting temperature at compound to DNA molar ratio of 0.3 at pH 7 by thermal denaturation assay; type: nucleic-acid assay; details: Bos taurus
[42] = system: HeLa; assay: Cytotoxicity against human HeLa cells at 0.1 to 100 uM after 72 hrs by MTT assay; type: functional, cell-based
[43] = system: Nucleic Acid; assay: Binding affinity to poly G-poly C RNA in citric acid buffer at pH 5 by fluorescence titration assay; type: nucleic-acid assay
[44] = system: Nucleic Acid; assay: Binding affinity to poly A-poly U RNA assessed as melting temperature at compound to DNA molar ratio of 0.2 at pH 5 by thermal denaturation assay; type: nucleic-acid assay
[45] = system: Calf thymus DNA; assay: Binding affinity to calf thymus DNA assessed as melting temperature at compound to DNA molar ratio of 0.2 at pH 7 by thermal denaturation assay; type: nucleic-acid assay; details: Bos taurus

- RFU [2]: 15.8
- Tm [3]: 59.7 °C
- ΔTm [4]: 5.2 °C
- Tm [5]: 51.5 °C
- log Ks [7]: 5.6
- Tm [8]: 70.1 °C
- Tm [9]: 84.8 °C
- RFU [10]: 3.8
- ΔTm [11]: 6.4 °C
- ΔTm [13]: 15.7 °C
- RFU [14]: 6.3
- RFU [15]: 0
- ΔTm [16]: 0 °C
- RFU [17]: 1.8
- solubility [18]: 1240 µM
- ΔTm [19]: 10.4 °C
- Tm [20]: 60.4 °C
- ΔTm [21]: 0 °C
- Activity [22]: Active
- log Ks [23]: 6.2
- ΔTm [24]: 2.2 °C
- RFU [25]: 20
- Tm [26]: 31.4 °C
- RFU [27]: -47.8
- RFU [28]: -15.3
- Activity [30]: Active
- log Ks [31]: 6.1
- RFU [32]: 2.7
- RFU [33]: 3.5
- RFU [34]: 24
- Tm [35]: 76.3 °C
- RFU [36]: -11.5
- log Ks [37]: > 7
- RFU [38]: 0.3
- RFU [39]: 3.5
- Activity [40]: Active
- ΔTm [41]: 5.5 °C
- log Ks [43]: 5.5
- Tm [44]: 83 °C
- Tm [45]: 83.2 °C
Compound: Cc1c2cc(NC(=O)NCCCCCCNC(=O)Nc3ccc4c(c3)c(C)[n+](C)c3ccccc43)ccc2c2ccccc2[n+]1C.O=S(=O)([O-])O.O=S(=O)([O-])O
- Activity [1]: Active
- Activity [6]: Active
- Activity [12]: Active
- Activity [29]: Active
- Activity [42]: Active

- RFU [2]: 9.2
- Tm [3]: 59.4 °C
- ΔTm [4]: 5.3 °C
- Tm [5]: 51.6 °C
- log Ks [7]: 5
- Tm [8]: 70.2 °C
- Tm [9]: 83.1 °C
- RFU [10]: -6.9
- ΔTm [11]: 6.1 °C
- ΔTm [13]: 15 °C
- RFU [14]: 34.2
- RFU [15]: 0
- ΔTm [16]: 0 °C
- RFU [17]: 3
- solubility [18]: 1460 µM
- ΔTm [19]: 10.7 °C
- Tm [20]: 60.7 °C
- ΔTm [21]: 0 °C
- Activity [22]: Active
- log Ks [23]: 6.1
- ΔTm [24]: 1.5 °C
- RFU [25]: 2.3
- Tm [26]: 30.7 °C
- RFU [27]: -45.2
- RFU [28]: 0.3
- Activity [30]: Active
- log Ks [31]: 6.1
- RFU [32]: 2.6
- RFU [33]: 47.7
- RFU [34]: 56
- Tm [35]: 75.6 °C
- RFU [36]: -13.5
- log Ks [37]: 6.4
- RFU [38]: 0.7
- RFU [39]: 62.5
- Activity [40]: Active
- ΔTm [41]: 3.8 °C
- log Ks [43]: 5.5
- Tm [44]: 84.1 °C
- Tm [45]: 81.7 °C
Compound: Cc1c2cc(NC(=O)NCCNC(=O)Nc3ccc4c(c3)c(C)[n+](C)c3ccccc43)ccc2c2ccccc2[n+]1C.O=S(=O)([O-])O.O=S(=O)([O-])O
- Activity [1]: inactive
- Activity [6]: Active
- Activity [12]: Active
- Activity [29]: Active
- Activity [42]: Active
